Usually relative IC50 stands for the concentration halfway between the upper and lower plateau of the fitted curve.

Experimental findings from the supplement of paper PMC4932681 are described below.

For assay [1], the system named is BT-474 Tam1. Kind of assay: drug sensitivity score (DSS) (DSS (dimensionless)); higher = more sensitive; extreme values may be limits of the assay. Particulars: 4-OH-tamoxifen in medium 1 µM; 72 h. As for the experimental part:
(§1)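 FIMM FO2B library drugs were tested at 5 concentrations (10,000-fold range) for 72 h, with CellTiter-Glo viability normalised to DMSO and benzethonium chloride controls. The Drug Sensitivity Score (DSS) is computed from the fitted logistic dose-response curve (area-based; 0 = inactive). Resistant lines and the 'in 1µM tamoxifen' arms were tested in 1 µM 4-OH-tamoxifen.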

Assay [2] concerns BT-474 Tam2. The assay is described as above. The note with it: 4-OH-tamoxifen in medium 1 µM; 72 h. As for the experimental part:
as §1

In assay [3] the test system is BT-474. The assay is described as above. The note with it: 72 h. As for the experimental part: as §1
The subject of a further assay is MCF-7 Tam1. Described as above. Particulars: 4-OH-tamoxifen in medium 1 µM; 72 h. As for the experimental part: as §1
For assay [4], the system named is MCF-7. Described as above. The note with it: 72 h. As for the experimental part: as §1
A further assay concerns T-47D Tam1. The description is as above. Particulars: 4-OH-tamoxifen in medium 1 µM; 72 h. As for the experimental part: as §1
The test system of the next assay is T-47D Tam2. The description is as above. Particulars: 4-OH-tamoxifen in medium 1 µM; 72 h. As for the experimental part:
as §1

The subject of assay [5] is T-47D. The description is as above. The note with it: 72 h. As for the experimental part: as §1
The test system of assay [6] is ZR-75-1 Tam1. The description is as above. Particulars: 4-OH-tamoxifen in medium 1 µM; 72 h. As for the experimental part:
as §1

Another assay has as its system ZR-75-1 Tam2. Described as above. Particulars: 4-OH-tamoxifen in medium 1 µM; 72 h. As for the experimental part:
as §1

In assay [7] the test system is ZR-75-1. The description is as above. Particulars: 72 h. As for the experimental part: as §1
Assay [8] has as its system BT-474 Tam1. Kind of assay: relative IC50 (midpoint of fitted logistic curve, plateau may be below 50% inhibition; CellTiter-Glo viability); higher = less potent. Particulars: 4-OH-tamoxifen in medium 1 µM; 72 h. As for the experimental part: (§2)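 FIMM FO2B library drugs were plated at 5 concentrations spanning a 10,000-fold range in 384-well plates. Cells were incubated for 72 h at 37 °C and viability was read by CellTiter-Glo, normalised to DMSO (0% inhibition) and 100 µM benzethonium chloride (100% inhibition). IC50 values come from logistic dose-response fits (Breeze pipeline). Tamoxifen-resistant lines and the 'in 1µM tamoxifen' parental arms were tested in medium with 1 µM 4-OH-tamoxifen.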
(ATP-based viability assays read luminescence as a measure of living cells.)

In assay [9] the test system is BT-474. The description is as above. Particulars: 72 h. As for the experimental part:
as §2

For assay [10], the system named is MCF-7. Described as above. The note with it: 72 h. As for the experimental part:
as §2

The test system of assay [11] is T-47D. The description is as above. The note with it: 72 h. As for the experimental part: as §2
Assay [12] deals with ZR-75-1 Tam1. Described as above. The note with it: 4-OH-tamoxifen in medium 1 µM; 72 h. As for the experimental part: as §2
Assay [13] relates to ZR-75-1. The assay is described as above. The note with it: 4-OH-tamoxifen in medium 0 µM; 72 h. As for the experimental part:
as §2

In assay [14] the test system is BT-474 Tam2. Described as above. Particulars: 4-OH-tamoxifen in medium 1 µM; 72 h. As for the experimental part: as §2

Where only a bound is given, the exact number is not on record here.

`CNC(=O)c1ccccc1Sc1ccc2c(/C=C/c3ccccn3)n[nH]c2c1` [Axitinib]: the drug sensitivity score in the assay on BT-474 Tam1 [1] is 2.01; in the assay with BT-474 Tam2 [2], 1.5; in the assay on BT-474 [3] (4-OH-tamoxifen in medium 0 µM), 0.518; with BT-474 [3] (4-OH-tamoxifen in medium 1 µM), 3.56; in the assay on MCF-7 Tam1 it was 1.84; with MCF-7 [4] (4-OH-tamoxifen in medium 0 µM), 1.43. In addition, the drug sensitivity score with MCF-7 [4] (4-OH-tamoxifen in medium 1 µM) amounted to 2.88; with T-47D Tam1, 1.41; in the assay on T-47D Tam2, 0.968; in the assay on T-47D [5] (4-OH-tamoxifen in medium 0 µM) it was 2.18; in the assay on T-47D [5] (4-OH-tamoxifen in medium 1 µM), 0.979; in the assay with ZR-75-1 Tam1 [6], 0. The drug sensitivity score in the assay on ZR-75-1 Tam2 amounted to 1.49; with ZR-75-1 [7] (4-OH-tamoxifen in medium 0 µM), 0; in the assay with ZR-75-1 [7] (4-OH-tamoxifen in medium 1 µM) it was 0.656. For the same molecule, the “relative IC50” value was 3250 nM in the assay with BT-474 Tam1 [8]; 1650 nM in the assay with BT-474 [9] (4-OH-tamoxifen in medium 1 µM); 3320 nM in the assay on MCF-7 [10] (4-OH-tamoxifen in medium 0 µM); 1480 nM with MCF-7 [10] (4-OH-tamoxifen in medium 1 µM); 2770 nM in the assay with T-47D [11] (4-OH-tamoxifen in medium 0 µM); greater than 10000 nM with ZR-75-1 Tam1 [12]. Further, the “relative IC50” value with ZR-75-1 [13] was greater than 10000 nM.
Consider `CC(=O)c1c(C)c2cnc(Nc3ccc(N4CCNCC4)cn3)nc2n(C2CCCC2)c1=O`, for which the drug sensitivity score was 0 in the assay with BT-474 Tam1 [1]; 0 with BT-474 Tam2 [2]; 0 in the assay on BT-474 [3] (4-OH-tamoxifen in medium 0 µM); 0 in the assay on BT-474 [3] (4-OH-tamoxifen in medium 1 µM); 0.967 in the assay with MCF-7 Tam1; 3.32 in the assay with MCF-7 [4] (4-OH-tamoxifen in medium 0 µM). Also, the drug sensitivity score in the assay with MCF-7 [4] (4-OH-tamoxifen in medium 1 µM) worked out at 3.28; with T-47D Tam1, 2.49; with T-47D Tam2, 1.34; in the assay with T-47D [5] (4-OH-tamoxifen in medium 0 µM) it was 2.46; with T-47D [5] (4-OH-tamoxifen in medium 1 µM), 0; in the assay on ZR-75-1 Tam1 [6], 1.11. Besides, the drug sensitivity score in the assay with ZR-75-1 Tam2 is 1.63; in the assay on ZR-75-1 [7] (4-OH-tamoxifen in medium 0 µM), 0; with ZR-75-1 [7] (4-OH-tamoxifen in medium 1 µM) it was 0.745. For the same molecule, the “relative IC50” value in the assay with BT-474 Tam2 [14] is greater than 10000 nM; in the assay with BT-474 [9] (4-OH-tamoxifen in medium 1 µM) it was greater than 10000 nM; in the assay with MCF-7 [10] (4-OH-tamoxifen in medium 0 µM), 1160 nM; in the assay with T-47D [11] (4-OH-tamoxifen in medium 1 µM), greater than 10000 nM; in the assay on ZR-75-1 [13] it was greater than 10000 nM.
Take `COc1cc2c(Oc3ccc(NC(=O)C4(C(=O)Nc5ccc(F)cc5)CC4)cc3F)ccnc2cc1OCCCN1CCOCC1` [Foretinib (Foretinib)]: the drug sensitivity score in the assay on BT-474 Tam1 [1] came out at 1.42; with BT-474 Tam2 [2] it was 0.0003; with BT-474 [3] (4-OH-tamoxifen in medium 0 µM), 0; with BT-474 [3] (4-OH-tamoxifen in medium 1 µM) it was 1.73; in the assay with MCF-7 Tam1, 1.72; in the assay on MCF-7 [4] (4-OH-tamoxifen in medium 0 µM), 0.867. Also, the drug sensitivity score in the assay with MCF-7 [4] (4-OH-tamoxifen in medium 1 µM) is 0.0297; with T-47D Tam1 it was 0.595; in the assay with T-47D Tam2 it was 1.36; with T-47D [5] (4-OH-tamoxifen in medium 0 µM), 0.41; in the assay with T-47D [5] (4-OH-tamoxifen in medium 1 µM), 0.227; in the assay on ZR-75-1 Tam1 [6], 0. In addition, the results for the drug sensitivity score in the assay on ZR-75-1 Tam2, in the assay with ZR-75-1 [7] (4-OH-tamoxifen in medium 0 µM) and in the assay with ZR-75-1 [7] (4-OH-tamoxifen in medium 1 µM) were 0.585, 0 and 0, respectively. Further, the “relative IC50” value was 314 nM with BT-474 Tam1 [8], greater than 1000 nM in the assay on BT-474 [9] (4-OH-tamoxifen in medium 0 µM), 404 nM in the assay with BT-474 [9] (4-OH-tamoxifen in medium 1 µM) and greater than 1000 nM in the assay on ZR-75-1 [13].
